Assays:
Assay in all cases: relative IC50 (inflection point of fitted viability curve, relative to fitted max inhibition); higher = less sensitive
Details in all cases: 72 h
NK-YS (IL-2 2.5 ng/mL) = system: NK-YS (IL-2 2.5 ng/mL)
Method: (§1)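 Drug sensitivity and resistance testing: 5 concentrations over a 10,000-fold range, 72 h at 37 °C, viability by CellTiter-Glo normalised to DMSO and benzethonium chloride controls. IC50 is the inflection point of a logistic fit (min fixed at 0, max fitted), so it is relative to the fitted maximal inhibition. Kept only where fitted max inhibition is at least 50%.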

[1] = system: normal primary NK cells, pool 1 (3 donors) (IL-2 2.5 ng/mL)
Method: as §1

IMC-1 (IL-2 20 ng/mL) = system: IMC-1 (IL-2 20 ng/mL)
Method: as §1

KAI3 (IL-2 2.5 ng/mL) = system: KAI3 (IL-2 2.5 ng/mL)
Method: as §1

NK-92 (IL-2 2.5 ng/mL) = system: NK-92 (IL-2 2.5 ng/mL)
Method: as §1

[2] = system: normal primary NK cells, pool 3 (3 donors) (IL-2 2.5 ng/mL)
Method: as §1

SNK-6 (IL-2 2.5 ng/mL) = system: SNK-6 (IL-2 2.5 ng/mL)
Method: as §1

NKL (IL-2 2.5 ng/mL) = system: NKL (IL-2 2.5 ng/mL)
Method: as §1

DERL-7 (IL-2 2.5 ng/mL) = system: DERL-7 (IL-2 2.5 ng/mL)
Method: as §1

YT (IL-2 2.5 ng/mL) = system: YT (IL-2 2.5 ng/mL)
Method: as §1

[3] = system: normal primary NK cells, pool 1 (3 donors), resting (IL-2 0 ng/mL)
Method: as §1

[4] = system: normal primary NK cells, pool 2 (3 donors) (IL-2 2.5 ng/mL)
Method: as §1

KHYG-1 (IL-2 2.5 ng/mL) = system: KHYG-1 (IL-2 2.5 ng/mL)
Method: as §1

Row | Compound | relative IC50 (NK-YS (IL-2 2.5 ng/mL)) [nM] | relative IC50 [1] [nM] | relative IC50 (IMC-1 (IL-2 20 ng/mL)) [nM] | relative IC50 (KAI3 (IL-2 2.5 ng/mL)) [nM] | relative IC50 (NK-92 (IL-2 2.5 ng/mL)) [nM] | relative IC50 [2] [nM] | relative IC50 (SNK-6 (IL-2 2.5 ng/mL)) [nM] | relative IC50 (NKL (IL-2 2.5 ng/mL)) [nM] | relative IC50 (DERL-7 (IL-2 2.5 ng/mL)) [nM] | relative IC50 (YT (IL-2 2.5 ng/mL)) [nM] | relative IC50 [3] [nM] | relative IC50 [4] [nM] | relative IC50 (KHYG-1 (IL-2 2.5 ng/mL)) [nM]
1 | CC[C@@]1(O)C(=O)OCc2c1cc1n(c2=O)Cc2cc3c(CN(C)C)c(O)ccc3nc2-1 [Topotecan] | 39.6 | 772 | 30.8 | 42 | 20.5 | 1030 | 40.2 | 35 | 54.9 | 52.5 | 2880 | 1320 | 33.8
2 | CC(=O)[C@]1(O)Cc2c(O)c3c(c(O)c2[C@@H](O[C@H]2C[C@H](N)[C@H](O)[C@H](C)O2)C1)C(=O)c1ccccc1C3=O [Idarubicin] | 6.58 | 17.3 | 7.71 | 3.54 | 5.78 | 10.9 | 5.03 | 1.74 | 6.26 | 34 | 3.38 | 9.51 | 6.52
3 | CCNC(=O)CCC/C=C\C[C@@H]1[C@@H](/C=C/[C@@H](O)CCc2ccccc2)[C@H](O)C[C@@H]1O [Bimatoprost] | > 5500 |  | > 5500 | > 5500 | > 5500 | > 5500 |  |  | > 5500 | > 5500 |  | > 5500 | > 5500
4 | Cc1nc(N)sc1-c1ccnc(Nc2ccc(N3CCOCC3)cc2)n1 [CYC-116] | 238 | 1810 | 913 | 1100 | 889 | 2800 | 171 | 989 | 538 | 1400 |  | 1600 | 599
5 | CCOc1cc2ncc(C#N)c(Nc3ccc(F)c(Cl)c3)c2cc1NC(=O)/C=C/CN(C)C [Pelitinib] | 820 | 300 | 966 | 260 | 510 | 429 | 103 | 475 | 293 | 496 | 459 | 260 | 382
6 | Cc1nc(Nc2n[nH]c3c2CN(C(=O)N[C@H](CN(C)C)c2ccccc2)C3(C)C)c2sccc2n1 | 83.5 | 1420 | 4.06 | 243 | 431 | 1590 | 1340 | 503 | 57.3 | 266 | 1300 | 575 | 33.1
7 | O=C(c1cccc(Cl)c1F)N1CCN(Cc2cccc(Nc3nccs3)n2)CC1 [MK-8745] | 203 |  | 709 |  |  | > 2500 | 204 |  | 376 |  |  | > 2500 | 
8 | Oc1c2ccccc2c2c3c(cccc13)N=N2 | 13200 | 11000 |  | 10600 | 4980 |  | 12200 | 4960 | 2570 |  |  |  | 9700
9 | CC(C)CC(=O)Nc1n[nH]c2c1CN(C(=O)C1CCN(C)CC1)C2(C)C | 463 | 3000 | 182 | 1390 | 871 | 2210 | 1650 | 1510 | 666 | 1220 | 4760 | 1890 | 380
10 | COc1ccc(-c2cc3c(C)nc(N)nc3n([C@H]3CC[C@H](OCCO)CC3)c2=O)cn1 | 344 | 939 | 4020 | 163 | 84.6 | 1510 | 1060 | 264 | 41.3 | 116 | 514 | 951 | 476
11 | c1cc(CN2CCCNCCNCCCNCC2)ccc1CN1CCCNCCNCCCNCC1 [Plerixafor] |  |  |  |  |  | > 10000 |  |  |  |  |  | > 10000 | 

From the supplement of paper PMC5908809
